Test results from EP4667483A1, “HUMAN TRANSFERRIN RECEPTOR-BINDING PEPTIDE” (JCR Pharmaceuticals Co., Ltd., priority 2023, dated 2024).
Bridge positions count the residues as written; N and C are the ends. Square brackets hold non-standard residues; d marks the D form. Peptide text beside a SMILES is read from it. * marks the point of attachment. Ala(imidazo(1,2-a)pyr3yl) = N[C@@H](Cc1cnc2ccccn12)C(=O)O; Trp(1-CH2COOH) = N[C@@H](Cc1cn(CC(=O)O)c2ccccc12)C(=O)O; NMePhe(4-COOH) = CN[C@@H](Cc1ccc(C(=O)O)cc1)C(=O)O; Phe(3-COOH) = N[C@@H](Cc1cccc(C(=O)O)c1)C(=O)O; Trp(7-aza) = N[C@@H](Cc1c[nH]c2ncccc12)C(=O)O; NH(CH2CH2O)8Me = COCCOCCOCCOCCOCCOCCOCCOCCN*; NMePhe(3-Cl) = CN[C@@H](Cc1cccc(Cl)c1)C(=O)O; 3Pal(6-NH2) = Nc1ccc(C[C@H](N)C(=O)O)cn1; Lys(N3) = [N-]=[N+]=NCCCC[C@H](N)C(=O)O; NMeY = CN[C@@H](Cc1ccc(O)cc1)C(=O)O; Nva(3-Et) = CCC(CC)[C@H](N)C(=O)O; NMeF = CN[C@@H](Cc1ccccc1)C(=O)O; 3Pal = N[C@@H](Cc1cccnc1)C(=O)O; 4Pal = N[C@@H](Cc1ccncc1)C(=O)O; PEG4 = NCCOCCOCCOCCOCCC(=O)O; Carboxymethyl = O=C(O)C*

Key:
Format in all cases: binding
[1] = target: T1, human transferrin receptor (hTfR) (Homo sapiens, UniProt P02786); assay: Evaluation of pH dependence (ratio of SPR koff or KD at pH 6.0 to pH 7.4); conditions: ratio of koff at pH 6.0 to pH 7.4
T1 sequence (P02786 whole entry): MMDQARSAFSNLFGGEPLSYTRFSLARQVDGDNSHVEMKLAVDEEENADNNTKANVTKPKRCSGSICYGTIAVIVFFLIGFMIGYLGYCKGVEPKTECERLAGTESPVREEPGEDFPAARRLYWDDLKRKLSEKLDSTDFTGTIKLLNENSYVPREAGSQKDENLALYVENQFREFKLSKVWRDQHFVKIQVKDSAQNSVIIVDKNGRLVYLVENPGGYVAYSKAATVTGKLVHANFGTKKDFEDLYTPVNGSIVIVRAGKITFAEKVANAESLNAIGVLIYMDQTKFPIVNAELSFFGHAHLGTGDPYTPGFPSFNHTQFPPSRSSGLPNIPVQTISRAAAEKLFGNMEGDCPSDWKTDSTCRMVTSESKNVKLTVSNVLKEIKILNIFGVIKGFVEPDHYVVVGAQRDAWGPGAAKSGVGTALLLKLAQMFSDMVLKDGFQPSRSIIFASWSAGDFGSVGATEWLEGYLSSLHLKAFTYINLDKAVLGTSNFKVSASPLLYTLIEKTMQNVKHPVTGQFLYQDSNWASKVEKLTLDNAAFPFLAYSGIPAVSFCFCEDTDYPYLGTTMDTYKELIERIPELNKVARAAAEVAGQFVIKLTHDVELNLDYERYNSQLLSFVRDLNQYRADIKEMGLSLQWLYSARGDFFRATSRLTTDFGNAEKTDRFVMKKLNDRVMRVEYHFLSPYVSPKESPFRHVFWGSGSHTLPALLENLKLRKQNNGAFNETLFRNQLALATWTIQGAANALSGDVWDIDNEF
Experimental: The ratio of the calculated koff or KD values under pH 6.0 conditions to those under pH 7.4 conditions was calculated to check pH dependency.

[2] = target: T1, human transferrin receptor (hTfR); assay: SPR measurement under pH 7.4 conditions (Biacore T200, CM3 chip, hTfR captured by His Tag antibody); conditions: read-out: hTfR SPR pH7.4 KD
[3] = target: T1, human transferrin receptor (hTfR); assay: SPR measurement under pH 6.0 conditions (Biacore T200, NTA chip, immobilized hTfR); conditions: read-out: hTfR SPR pH6.0 KD

CCC(CC)[C@@H]1NC(=O)[C@H](Cc2ccc(OCC(=O)O)cc2)NC(=O)[C@H](Cc2ccc(O)cc2)NC(=O)[C@H](CC(N)=O)NC(=O)[C@H](Cc2cn(CC(=O)O)c3ccccc23)NC(=O)[C@H](C(C)C)NC(=O)[C@H](Cc2cccc(Cl)c2)N(C)C(=O)[C@H](C(C)C)NC(=O)[C@H](C)NC(=O)CSC[C@@H](C(=O)NCCOCCOCCOCCOCCC(N)=O)NC(=O)[C@H](Cc2ccc(OC)cc2)N(C)C(=O)[C@H](Cc2cccc(C(=O)O)c2)NC(=O)[C@H](CCCNC(=N)N)NC(=O)[C@H](CCC(N)=O)NC(=O)[C@H]([C@@H](C)CC)NC1=O [compound 93] ({CH2CO}-AV[NMePhe(3-Cl)]V[Trp(1-CH2COOH)]NYY(Carboxymethyl)[Nva(3-Et)]IQR[Phe(3-COOH)][NMeY](Me)C[PEG4]-NH2; thioether N-15)
dependency koff pH6.0/7.4 [1]: 7.99

CCC(CC)[C@@H]1NC(=O)[C@H](Cc2ccc(OCC(=O)O)cc2)NC(=O)[C@H](Cc2ccc(N)nc2)NC(=O)[C@H](CC(N)=O)NC(=O)[C@H](Cc2c[nH]c3ncccc23)NC(=O)[C@H](C(C)C)NC(=O)[C@H](Cc2cccc(Cl)c2)N(C)C(=O)[C@H](C(C)C)NC(=O)[C@H](C)NC(=O)CSC[C@@H](C(=O)NCCOCCOCCOCCOCCC(N)=O)NC(=O)[C@H](Cc2ccc(O)cc2)N(C)C(=O)[C@H](Cc2cccc(C(=O)O)c2)NC(=O)[C@H](CCCNC(=N)N)NC(=O)[C@H](CCC(=O)NCCOCCOCCOCCOCCOCCOCCOCCOC)NC(=O)[C@H]([C@@H](C)CC)NC1=O [compound 43] ({CH2CO}-AV[NMePhe(3-Cl)]V[Trp(7-aza)]N[3Pal(6-NH2)]Y(Carboxymethyl)[Nva(3-Et)]IE(NH(CH2CH2O)8Me)R[Phe(3-COOH)][NMeY]C[PEG4]-NH2; thioether N-15)
Kd ([2]; pH 7.4, single-cycle kinetics): 107 nM | Kd ([3]; pH 6.0, single-cycle kinetics): 601 nM

CC[C@H](C)[C@@H]1NC(=O)[C@H](Cc2ccc(OC)cc2)NC(=O)[C@H](Cc2ccc(N)nc2)NC(=O)[C@H](CC(N)=O)NC(=O)[C@H](Cc2cnc3ccccn23)NC(=O)[C@H](C(C)C)NC(=O)[C@H](Cc2ccccc2)N(C)C(=O)[C@H](C(C)C)NC(=O)[C@H](C)NC(=O)CSC[C@@H](C(=O)NCC(=O)N[C@@H](CCCCN=[N+]=[N-])C(N)=O)NC(=O)[C@H](Cc2ccc(C(=O)O)cc2)N(C)C(=O)[C@H](Cc2ccncc2)NC(=O)[C@H](CCCNC(=N)N)NC(=O)[C@H](CCCNC(=N)N)NC(=O)[C@H]([C@@H](C)CC)NC1=O [compound 189] ({CH2CO}-AV[NMeF]V[Ala(imidazo(1,2-a)pyr3yl)]N[3Pal(6-NH2)]Y(Me)IIRR[4Pal][NMePhe(4-COOH)]CG[Lys(N3)]-NH2; thioether N-15)
Kd ([2]; SPR, pH 7.4, Table 1-3-2-2): 81.2 nM | Kd ([3]; SPR, pH 6.0, Table 1-3-2-2): 384 nM

CCC(CC)[C@@H]1NC(=O)[C@H](Cc2ccc(OCC(=O)O)cc2)NC(=O)[C@H](Cc2ccc(O)cc2)NC(=O)[C@H](CC(N)=O)NC(=O)[C@H](Cc2cn(CC(=O)O)c3ccccc23)NC(=O)[C@H](C(C)C)NC(=O)[C@H](Cc2cccc(Cl)c2)N(C)C(=O)[C@H](C(C)C)NC(=O)[C@H](C)NC(=O)CSC[C@@H](C(=O)NCCOCCOCCOCCOCCC(N)=O)NC(=O)[C@H](Cc2ccc(O)cc2)N(C)C(=O)[C@H](Cc2cccnc2)NC(=O)[C@H](CCCNC(=N)N)NC(=O)[C@H](CCC(N)=O)NC(=O)[C@H]([C@@H](C)CC)NC1=O [compound 105] ({CH2CO}-AV[NMePhe(3-Cl)]V[Trp(1-CH2COOH)]NYY(Carboxymethyl)[Nva(3-Et)]IQR[3Pal][NMeY]C[PEG4]-NH2; thioether N-15)
Kd ([2]; SPR, pH 7.4, peptide with the linker named in the table): 10.6 nM | Kd ([3]; SPR, pH 6.0, peptide with the linker named in the table): 67.9 nM

CC[C@H](C)[C@@H]1NC(=O)[C@H](Cc2ccc(OC)cc2)NC(=O)[C@H](Cc2ccc(N)nc2)NC(=O)[C@H](CC(N)=O)NC(=O)[C@H](Cc2cnc3ccccn23)NC(=O)[C@H](C(C)C)NC(=O)[C@H](Cc2ccccc2)N(C)C(=O)[C@H](C(C)C)NC(=O)[C@H](C)NC(=O)CSC[C@@H](C(=O)NCC(=O)N[C@@H](CCCCN=[N+]=[N-])C(N)=O)NC(=O)[C@H](Cc2ccc(O)cc2)N(C)C(=O)[C@H](Cc2ccncc2)NC(=O)[C@H](CCCNC(=N)N)NC(=O)[C@H](CCCNC(=N)N)NC(=O)[C@H]([C@@H](C)CC)NC1=O [compound 190] ({CH2CO}-AV[NMeF]V[Ala(imidazo(1,2-a)pyr3yl)]N[3Pal(6-NH2)]Y(Me)IIRR[4Pal][NMeY]CG[Lys(N3)]-NH2; thioether N-15)
Kd ([2]; SPR, pH 7.4, Table 1-3-2-2): 57.1 nM | Kd ([3]; SPR, pH 6.0, Table 1-3-2-2): 177 nM
